The test system of one assay is Pkd1 knockout mouse. Kind of assay: Apoptosis of cyst cells in Pkd1 knockout mouse. Type of assay: in vivo.
For assay [1], the system named is Pkd1 conditional knockout mice. Kind of assay: F4/80 immunofluorescence staining, macrophage infiltration in kidney tissue of Pkd1 conditional knockout mice. The format is in vivo. Particulars: 1 mg/kg i.p. once a day; treatment group versus model control group. An excerpt: F4/80 in the kidney tissues of the wild group, the model control group and the SB290157 treatment group were stained by immunofluorescence to compare the macrophage infiltration.

In assay [2] the test system is mouse cyst epithelial cells. Kind of assay: Ki67 immunohistochemical staining of kidney slices, proliferation of cyst epithelial cells. The format is in vivo, mice. Particulars: treatment group versus model control group. Here is the method:
In order to explore whether the proliferation of mouse cyst epithelial cells was restricted after treatment, immunohistochemical staining for Ki67 was performed on kidney slices of each group of mice, wherein Ki67 was a nuclear protein that could reflect the cell proliferation level.

Assay [3] has as its system ADPKD-related pathway protein. Kind of assay: Western blot of ADPKD-related signaling pathway proteins in kidney tissue. Type of assay: in vivo, mice. An excerpt:
In order to further explore the therapeutic mechanism of SB290157 on polycystic kidney mice, the expression of ADPKD-related pathway protein was detected by Western blot.

For the next assay, the system named is Pkd1 knockout mice. Kind of assay: Effect of C3aR inhibitor SB290157 on cyst indexes and kidney function of Pkd1 knockout mice. The format is in vivo. An excerpt: Experimental animals: the animals used in this experiment were PKD1^flox/flox-Tamoxifen-Cre mice, gifted by professor Wüthrich RP, University of Zurich, Switzerland, and were bred in Specific Pathogen Free (SPF) Laboratory Animal Center of Naval Medical University [License No: SYXK (Shanghai): 2017-0004].
The blood creatinine, urea nitrogen, kidney/body weight, and cyst index of each group of mice were compared.
The main reagents used were a C3aR inhibitor (Calbiochem, SB290157, Germany), Creatinine Assay Kit (Nanjing Jiancheng Bioengineering Institute), Urea Nitrogen Assay Kit (Nanjing Institute of Built Bioengineering), and dimethyl sulfoxide (DMSO) (Amresco, 1963C070, USA).
Serum creatinine (μmol/L)=[(Sample A2-K*Sample A1)−(Blank A2-K*Blank A1)]/[(Standard A2-K*Standard A1)−(Blank A2-K*Blank A1)]*Standard Concentration; Formula:
Urea nitrogen (mmol/L)=(Assay OD−Blank OD)/(Standard OD−blank OD)*Standard Concentration (10 mmol/L)*Dilution multiple;
After HE staining, scanning was performed with a whole slide image scanner, and pictures were exported and saved using CaseViewer software. The total pixel value of the whole kidney in Photoshop software was calculated as A1, a cyst area was selected and calculated the total pixel value as A2, wherein the ratio of A2 to A1 is the cyst index.

For assay [4], the system named is Han:sPRD rats and PKD1 knockout mice. The following applies: cited from earlier work.
Assay [5] concerns RAW264.7 cells. Kind of assay: C3a stimulation of macrophages, RT-PCR of iNOS, TNF-α and IL-6 mRNA. The format is cell-based, Murine. The following applies: 24 hours. Here is the method: (§1) The C3aR expression on the cell surface affected the sensitivity of downstream signals induced by C3a, so C3a-C3aR should act mainly on M1-type macrophages, which was consistent with the downstream pro-inflammatory effect. To verify the effect of C3a stimulation on the expression of M1-type macrophage inflammatory factor, RAW264.7 cells were divided into 5 groups: (1) a control group: without any stimulation; (2) a LPS group: stimulated with 100 ng/ml LPS; (3) a LPS+C3a group: stimulated with 100 ng/ml LPS+100 ng/ml C3a; (4) a IL-4 group: stimulated with 20 ng/ml IL-4; (5) a IL-4+C3a group: stimulated with 20 ng/ml IL-4+100 ng/ml C3a. After 24 hours, cell RNA was extracted, and RT-PCR was used for detecting iNOS, TNF-α and IL-6 mRNA level in each group of cells, wherein the primer sequence used by RT-PCR was as follows: iNOS primer sequence Mouse F: 5′-[…]-3′ (SEQ ID NO:9), Mouse R: 5′-[…]-3′ (SEQ ID NO:10), IL-6 primer sequence Mouse F: 5′-[…]-3′ (SEQ ID NO:11), Mouse R: 5′-[…]-3′ (SEQ ID NO:12), TNF-α primer sequence Mouse F: 5′-GGCATGGATCTCAAAGACA-3′ (SEQ ID NO:13), Mouse R: 5′-TGGGCTCATACCAGGGTT-3′ (SEQ ID NO:14).

Assay [6] has as its system RAW264.7 cells. Kind of assay: C3a stimulation of macrophages, Western blot of p-Akt, p-ERK, p-P65, p-STAT1 and TNF-α. The format is cell-based, Murine. The following applies: 24 hours. How it is done:
In order to explore the mechanism of pro-inflammatory effects of C3a-C3aR on M1-type macrophages, RAW264.7 cells were divided into 4 groups with LPS as a stimulation factor and C3a as an intervention factor: (1) a control group (without any stimulation); (2) a C3a (100 ng/ml) stimulation group; (3) a LPS (100 ng/ml) stimulation group; (4) a C3a (100 ng/ml)+LPS (100 ng/ml) stimulation group. After 24 hours, cell proteins in each group were extracted, and Western blot was used for detecting the expression of p-Akt, p-ERK, p-P65, p-STAT1 and TNF-α. […] Akt and ERK may regulate the apoptosis and proliferation of M1-type macrophages, while NF-κB and STAT1 was an important signaling pathway for polarization and related inflammation of M1-type macrophage. Therefore, it is speculated that C3a-C3aR may promote the activation of Akt, ERK, STAT1 and NF-κB pathway in M1-type macrophages, and then promote the secretion of TNF-α inflammatory factors by M1-type macrophages.

The subject of assay [7] is RAW264.7 cells. Kind of assay: TNF-α level in macrophage culture supernatants by Elisa. Type of assay: cell-based, Murine. Particulars: culture supernatant, after C3a stimulation. How it is done: as §1
The TNF-α level in the culture supernatants of macrophages from different treatment groups were detected by Elisa. […]

The mark [8] stands for this setting: treatment group compared to model control group.
Setting [9] is: treatment group compared with model control group.
The mark [10] stands for this setting: M1-type macrophages (100 ng/ml LPS) + 100 ng/ml C3a.
[11] abbreviates: M1-type macrophages, C3a 100 ng/ml + LPS 100 ng/ml.

The values that follow come from patent US20220287998A1, “USE OF C3aR IN PREPARING DRUG FOR PREVENTING OR TREATING POLYCYSTIC KIDNEY DISEASE” (Shanghai Changzheng Hospital, priority 2021, published 2022).

Turning to `N=C(N)NCCCC(NC(=O)COCC(c1ccccc1)c1ccccc1)C(=O)O` (stereo not drawn) [SB290157], in the assay with Pkd1 knockout mouse, the apoptosis result is given as “increasing”. Also, the “positive rate of F4/80 in the kidney tissue (macrophage infiltration)” value in assay [1] is reported as “significantly lower”. In addition, the “number of kidney Ki67 positive staining cells” value in assay [2] is reported as “significantly lower”. In [3], the C3aR level result is “reduced”. Also, in assay [3] (setting [8]), the “expression of p-Akt protein” value is given as “down-regulated”, the “expression of p-ERK protein” value is recorded as “down-regulated” and the “expression of p-P65 protein” value is “down-regulated”. The “double kidney weight/body weight ratio (2KW/BW)” value with Pkd1 knockout mice (Pkd1 knockout mice, 1 mg/kg i.p. once a day, day 28, model control 0.112±0.006, wild 0.012±0.000) was 0.043±0.007. In addition, in the assay on Pkd1 knockout mice (Pkd1 knockout mice, 1 mg/kg i.p. once a day, day 28, model control 80.4±6.0, wild 6.8±0.7), the blood urea nitrogen came to 26.3 ± 6.5 mmol/L. The serum creatinine with Pkd1 knockout mice (Pkd1 knockout mice, 1 mg/kg i.p. once a day, day 28, model control 90.0±3.6, wild 13.0±1.2 μmol/L) was found to be 29.3±3.4 μm. This compound registered a cyst index in the assay with Pkd1 knockout mice (Pkd1 knockout mice, 1 mg/kg intraperitoneal once a day from postnatal day 12, sacrificed day 28, model control 49.9±1.9%) of 35.3±1.9%. Further, in the assay on Pkd1 knockout mice (setting [9]), the “cyst area (HE staining)” value is listed as “reduction” and the kidney volume result is recorded as “reduced”.
As for `[Cl][Co][Cl]` [cobalt chloride], in [4], the “growth of kidney cysts” value is “inhibit”, the “infiltration of kidney interstitial macrophages” value was “significantly reduce” and the kidney function result is “improve”.
In the case of `O=C(/C=C/c1ccc(O)c(O)c1)O[C@H](Cc1ccc(O)c(O)c1)C(=O)O` [rosmarinic acid], in assay [4], the “growth of kidney cysts” value was “inhibit”, the “infiltration of kidney interstitial macrophages” value is given as “significantly reduce” and the kidney function entry is reported as “improve”.
Take “C3a: produced by activation of complement C3; promotes inflammatory cell infiltration; used at 100 ng/ml to stimulate macrophages”: the “pro-inflammatory effect on M2-type macrophages” value with RAW264.7 cells [5] (20 ng/ml IL-4 + 100 ng/ml C3a) was “no significant pro-inflammatory effect”. In the assay with RAW264.7 cells [5] (setting [10]), the “IL-6 mRNA level” value is listed as “remarkably up-regulated” and the “TNF-alpha mRNA level” value is reported as “remarkably up-regulated”. Further, the “iNOS mRNA level” value in the assay with RAW264.7 cells [5] (M1-type macrophages (100 ng/ml LPS) + 100 ng/ml C3a, versus LPS group) is “up-regulated”. Further, the “stimulatory effect on M0-type macrophages (p-Akt, p-ERK, p-P65, p-STAT1, TNF-α)” value in the assay with RAW264.7 cells [6] (C3a 100 ng/ml alone) is “not significant”. Also, in the assay on RAW264.7 cells [6] (setting [11]), the “expression of TNF-α protein” value is “further up-regulated”, the “expression of p-Akt protein” value is “further up-regulated”, the “expression of p-ERK protein” value was “further up-regulated” and the “expression of p-P65 protein” value was “further up-regulated”. Besides, in the assay with RAW264.7 cells [6] (setting [11]), the “expression of p-STAT1 protein” value is on record as “further up-regulated”. Also, the “TNF-α level secreted by M1-type macrophages” value in the assay on RAW264.7 cells [7] was “further increased”.
